Measured values: patent US8517736B2, “Method for alleviating the undesired side effects of dental bleaching” (Dr. Gunnar Rolla Consultant AS, priority 2011, dated 2013)
Where two headings read alike, the source gives them in different places.

Key:
[1] = tested on: hypersensitive bleached front teeth
Protocol: A volunteer had performed a self-bleaching procedure on their teeth, using a home kit. They complained and described their front teeth as extremely sensitive for changes of temperature in drinks or food. The teeth were rinsed carefully with water at room temperature, and isolated with cotton rolls. The teeth were kept dry and then treated with a generous amount of a saturated aqueous solution of Ca(OH)2, at an acceptable temperature, for a period of about 5 minutes. After a few additional minutes the cotton rolls were removed, and treatment with an aqueous solution of 2.0% by weight of NaF was performed, to induce formation CaF2, to stabilize the calcium added.

[2] = saturated, or less than saturated, aqueous solutions
[3] = SEM micrographs of bleached human tooth enamel surface; details: human tooth enamel after bleaching with peroxide
From the text: FIG. 2: A SEM micrograph showing the same tooth surface (from FIG. 1) covered with a film of dehydrated Ca(OH)2.
FIG. 3: A SEM micrograph showing the same tooth surface (from FIG. 2) subsequently treated with 2% by weight NaF-solution.

| SMILES | tooth colour after treatment ([1]; after saturated Ca(OH)2 then 2.0% NaF treatment) | reappearance of sensitivity after treatment ([1]; follow-up after saturated Ca(OH)2 then 2.0% NaF treatment) | hypersensitivity of bleached teeth after treatment ([1]; volunteer, saturated aqueous Ca(OH)2 about 5 minutes, followed by aqueous 2.0% by weight NaF) | pH [2] | pH ([2]; listed as calcium hydroxide) | enamel surface appearance after bleaching (SEM, FIG. 1) [3] |
| --- | --- | --- | --- | --- | --- | --- |
| [Ca+2].[OH-].[OH-] [Ca(OH)2, calcium hydroxide] | maintained an acceptable colour | sensitivity has not reappeared | hypersensitivity was eliminated | > 10 | 14 |  |
| OO [peroxide, hydrogen peroxide] |  |  |  |  |  | pitted and damaged by demineralization |
